Measured values taken from BigSolDB 2.1.

CCCCCCCCCCCCCCCCOc1nc2ccc(C)cc2c(=O)o1
solubility (mole fraction)
Details | 278.15 K | 283.15 K | 288.15 K | 293.15 K | 298.15 K | 303.15 K | 308.15 K | 313.15 K | 318.15 K | 323.15 K
in acetone | 0.0814 | 0.0965 | 0.114 | 0.133 | 0.157 | 0.18 | 0.208 | 0.245 | 0.284 | 0.327
in acetonitrile | 0.0619 | 0.0759 | 0.089 | 0.106 | 0.123 | 0.144 | 0.167 | 0.191 | 0.222 | 0.259
in isopropanol | 0.0702 | 0.0829 | 0.0979 | 0.116 | 0.137 | 0.158 | 0.181 | 0.207 | 0.241 | 0.28
